Assay results taken from patent publication US5506213A, “Adminstration of 2'-halo-2'-deoxy adenosine to treat inflammatory bowel disease” (priority 1994, dated 1996).

Tests used:
multiple sclerosis = assay: Treatment of chronic multiple sclerosis patients with CdA; type: in vivo, human
Description: A study of four patients with chronic multiple sclerosis was undertaken. Each patient was first examined for normal hepatic, renal, and bone marrow functioning to establish baseline values. Each of the patients was then treated with CdA dissolved in sterile preservative-free isotonic saline. The CdA was administered intravenously at a dosage of 0.1 mg/kg each day for a total of seven days. Each patient received six courses of intravenous therapy, once monthly for a total of six months. Patients were examined on a daily basis while hospitalized. During that time, daily blood counts and twice weekly blood chemistries were performed on each patient. CdA levels were also measured in blood and spinal fluid.
The neurologic function of each of these patients was measured using the expanded Krutzke disability status scale (EDSS), and the neurologic rating scale (NRS).

[1] = test system: circulating peripheral blood monocytes, lymphocytes, neutrophils and platelets; assay: Cytotoxicity of CdA in vivo: blood cell counts in cutaneous T-cell lymphoma patients; set-up: species or system human
Description: FIG. 1 is a graph showing the results of a study of the cytotoxicity of 2-chlorodeoxyadenosine (CdA) toward three cell types in the peripheral blood of eight cutaneous T-cell lymphoma patients. A continuous intravenous infusion of CdA (0.1 mg/ml in isotonic saline) was administered to each patients at a dosage of 0.1 mg/kg per day, with the patients receiving therapy for seven days. Blood samples were removed daily and cell counts performed, with averaged values being shown. Graph symbols are as follows: open squares indicate the monocytes; plus signs indicate neutrophils (X10^-1); and closed diamonds indicate lymphocytes. The cell concentration (ordinate) is plotted for the day of treatment (abscissa) on which it is measured.
The effect of 2-chlorodeoxyadenosine (CdA) administration upon the level of circulating peripheral blood monocytes, lymphocytes, neutrophils and platelets was determined as follows.
Eight cutaneous T-cell lymphoma patients were administered continuous intravenous infusion of a composition containing 2-chlorodeoxyadenosine at a dosage of 0.1 mg/kg of body weight per day in isotonic saline. Blood samples were obtained daily and the number of viable cells present were enumerated daily for seven days after treatment.

[2] = test system: DNA strand breaks in human monocytes; assay: DNA damage in monocytes, fluorescent assay for DNA unwinding in alkaline solution; type: cell-based; details: for additional residual double-stranded DNA (repair) after CdA removal: over the next four hours
Description: FIG. 4 is a graph of the dose- and time-dependence for CdA in inducing DNA strand breaks in monocytes in vitro.
Monocytes were plated as discussed previously, and were then contacted with compositions containing various concentrations of CdA. The amount of DNA damage in monocytes exposed to CdA was determined by the fluorescent assay for DNA unwinding in alkaline solution described by Birnboim and Jevcak (1981) Cancer Res., 41:1889-1892, modified to accommodate lower cell numbers (Thierry et al. (1985) Radiation Res., 102:347-358).
The unwinding rate of DNA in alkaline solution at 15 degrees C. is proportional to the number of DNA strand breaks or alkali-labile sites. The ethidium bromide fluorescence of residual duplex DNA in samples exposed to pH 12.8 for one hour was compared to the fluorescence of a DNA aliquot that was not exposed to alkali. The percent residual double-stranded DNA at 1 hour was taken as a measure of the DNA damage in the sample. The results are illustrated in FIG. 4.
The repair of monocyte DNA damage caused by CdA was compared to the damage caused by gamma irradiation. Monocytes were pre-exposed to 0.1 or 1.0 μM CdA for four hours. At the end of this time, approximately 60 percent residual double-stranded DNA was present in the cells. The CdA was removed, and the amount of residual double-stranded DNA was calculated over the next four hours. Any increase in doublestranded DNA represents ongoing repair mechanisms.

[3] = test system: Peripheral blood lymphocytes; assay: Direct comparative cytotoxicity assay (Table II), peripheral blood lymphocytes; type: cell-based, human; details: Homo sapiens, Lymphocyte, 120 h, read-out: ID50: concentration that produced 50 percent reduction in all numbers after five days
Description: The two compounds, CdA and CAFdA, were also compared for in vitro activity against another group of human cell lines in a direct comparative assay.
^1 Concentration that produced 50 percent reduction in all numbers

[4] = cited from earlier work

## Nc1nc(Cl)nc2c1ncn2[C@H]1C[C@H](O)[C@@H](CO)O1 [CdA, 2-chloro-9,1'-beta-D-2'-deoxyribosyladenine]
Multiple sclerosis; all cases
  cerebrospinal fluid IgG oligoclonal bonds: complete disappearance
Multiple sclerosis; all four patients
  platelet counts: remained within the normal range
Multiple sclerosis; all patients, lasting six to eight months after cessation of treatment
  macrocytosis: modest macrocytosis
Multiple sclerosis; another patient, after two treatments
  monocyte level: substantially absent
Multiple sclerosis; during treatment with CdA
  neurologic function, EDSS and NRS scales: evidence of improvement in all four patients
Multiple sclerosis; four patients, 0.1 mg/kg each day i.v. for seven days, six monthly courses
  toxic side effects: no evidence of any significant toxic side effects
Multiple sclerosis; human, in vivo
  cerebrospinal fluid lymphocyte counts: marked drop
  total CFS IgG: no significant change
Multiple sclerosis; one patient, after the first treatment
  monocyte drop: 40%
Multiple sclerosis; same patient, after each of the remaining five treatments
  monocyte level: substantially absent
[1]; after cessation of the CdA administration
  time for monocyte numbers to return to approximately pre-administration values: within about two weeks
[1]; by the end of period of infusion, 0.1 mg/kg per day
  decrease in number of circulating lymphocytes: 30%
[1]; by the seventh treatment day, 0.1 mg/kg per day
  patients whose monocytes disappeared completely from the circulation: four of the eight
[1]; day 7, 0.1 mg/kg per day continuous intravenous infusion, eight patients
  mean level of monocyte decrease: 80%
[1]; seven days, 0.1 mg/kg per day
  number of circulating neutrophils: no significant decrease
  platelet and hemoglobin levels: constant
[2]; 10 nM CdA
  time to appearance of DNA breaks: ≤ 2 h
[2]; 0.1 μM CdA
  additional residual double-stranded DNA (repair) after CdA removal: 10%
[2]; 1.0 μM CdA
  additional residual double-stranded DNA (repair) after CdA removal: no increase
[2]; pre-exposed to 0.1 or 1.0 μM CdA for four hours
  residual double-stranded DNA: approximately 60%
[3]
  IC50: 15 nM
[4]; humans, infusion
  plasma level at which dose-limiting bone marrow suppression usually occurred: greater than 20 nM
[4]; infusion of 0.1-0.5 mg/kg/day, humans, read-out: plasma concentrations of the drug
  concentration: 10 to 50 nM
[4]; infusion, no nausea, vomiting or fever
  tolerability: well tolerated
